From publication PMC11134387, “Cancer-Stem-Cell Phenotype-Guided Discovery of a Microbiota-Inspired Synthetic Compound Targeting NPM1 for Leukemia” (JACS Au, 2024)
Entries after “also recorded” stand apart in the source; their conditions may differ.

Assays:
[1] = system: MCF-7-derived mamospheres; experiment: Formation of MCF-7-derived mamospheres (CSC tumorspheres); assay type: cell-based
Protocol: (BD Biosciences, Franklin Lakes, NJ, USA). All cells were maintained at 37 °C in a humidified incubator in an atmosphere of 5% CO2, and passaged every 2–3 days.
Additionally, they were cultured using RPMI media (Gibco/Life Technologies; Grand […]
Colonospheres, mamospheres and colony formation unit assays. 30.000 cells per well of MCF-7 cells (mamos pheres), HCT-116 cells (colonospheres) and CD34+ cells from patients (colony formation units) were seeded in serum free non- adherent medium or […]
MethoCult (Stem Cell). […]

OCI-AML3 (NPM1 C+) = experiment: Cell viability dose-response in AML cell line (NPM1 C+); assay type: cell-based; conditions: Homo sapiens, OCI-AML-3; OCI-AML3, 48 h
Excerpt: (§1) One of the most paradigmatic diseases with critical involvement of CSCs is AML. Among the AML stem cell population, CD34+/CD38- are the only ones capable of inducing leukemia in vivo.[27] […] We focused on proteins that disappeared completely after treatment with the compound and whose concentration could be quantified in untreated samples. According to this profile, 340 proteins, including targets related with stemness and cancer, were identified (see Supplementary Excel file). Among them, nucleophosmin 1 (NPM1) especially attracted our attention, as it is one of the most common mutated proteins in AML.[28] To support that the inhibitory capacity of UCM-13369 observed in CSC cells (see Table S1) is mediated by NPM1, the compound was tested on OCI-AML3 and MOLM13 cell lines, as in vitro AML models bearing mutant (NPM1 C+) and wild-type (WT) protein, respectively.
(§2) The test compound was diluted in PBS.

MOLM13 (NPM1 WT) = experiment: Cell viability dose-response in AML cell line (NPM1 WT); assay type: cell-based; conditions: Homo sapiens, MOLM-13; MOLM13, 48 h
Excerpt: as §1, §2

NPM1 = experiment: qPCR of NPM1 expression in OCI-AML3 cells; assay type: cell-based; conditions: OCI-AML3, 10 μM
Excerpt: We next studied the impact of UCM-13369 in the genes and/or expression levels of NPM1 and NPM1 C+ pathway components (Figure 4A), including the positive regulation of c-Myc[34] and the negative regulation of FBXW7 and the pro-apoptotic CASP8.[35] […] The inhibition of NPM1 was also observed in MOLM13 cells expressing WT NPM1 (Figure S1B). […]
quantitative real-time PCR (qPCR), or were sorted using a FACS BD INFL UX cell sorter (BD Biosciences, Franklin Lakes, NJ, USA). All cells were maintained at 37 °C in a humidified incubator in an atmosphere of 5% CO2, and passaged every 2–3 days.
Additionally, they were cultured using RPMI media (Gibco/Life Technologies; Grand Island, NY, USA) supplemented with 10% fetal bovine serum (FBS) (Hyclone) and […]
Primary cells. […] After 72 h in maintenance cells were ready to start the assays. […]
Colonospheres, mamospheres and colony formation unit assays. […] After 10 days (mamospheres and colonospheres) and 14 days (CFU-E) we quantified t he number of colonies/spheres and number of cell s (CFU-E) by […]
RNA and DNA extraction and quantitative PCR (qPCR). […] Gene expression was studied from the extracted RNA, processed into cDNA to quantify the expression of NPM1 and c-MYC. […]
The relative amount of targets was determined by the comparative Ct method.
Western blot. […] Lysates wer e cl ear ed by centrifugation (14,000g, 4 °C, 30 min), protein concentration determined by Bradford

OCI-AML3-ffLuc-GFP cells = experiment: AML xenograft mouse model (OCI-AML3-ffLuc-GFP in NSG mice); assay type: in vivo
Protocol: Based on the encouraging results obtained in ex vivo models of AML, we further assessed the therapeutic potential of the new NPM1 inhibitor in vivo. Prior to the evaluation of the compound in an animal model of AML, in vivo pharmacokinetic studies were addressed. Following a single intraperitoneal administration of UCM-13369 at a dose of 25 mg/kg, levels of 200–600 μg/L were detected in mouse peripheral blood up to 6 h (Figure 6A). Plasma protein binding of the compound in mouse serum was measured using an equilibrium dialysis assay, indicating a bound fraction of 83 ± 1%. Next, the efficacy of the compound was evaluated in immunodeficient mice after injection of OCI-AML3-ffLuc-GFP cells as an AML animal model.
An AML xenograft mouse model was used for the in vivo study of efficacy. Female 6- to 8-week-old NOD.Cg-Prkdcscid Il2rgtm1Wjl/SzJ (NSG) mice (Vivotecnia, Madrid, Spain) were inoculated intravenously by tail vein injection with OCI-AML3-ffLuc-GFP cells (1 × 10^6). Four days later, the mice were randomized into two groups of 10 animals: the first group received intraperitoneal injections of vehicle (0.9% saline solution) 5 days a week; the second group received intraperitoneal injections of 25 mg/kg or 50 mg/kg UCM-13369 five times weekly for 3 weeks. The mice were monitored for tumor burden, distribution, and engraftment every week by IVIS whole-body bioluminescence imaging. Bioimaging of MM burden in vivo was performed by IVIS Imaging system (Caliper Life Science). A solution of luciferin (D-luciferin monosodium salt, Thermo Fisher) in PBS was injected (150 mg/kg, ip), and luminescence signal was determined after 10 min. The data were analyzed using the Living Image 4.2 (Caliper Life Science) software.

HCT-116 = experiment: Cytotoxic effect in colon tumor cell line (MTT); conditions: Homo sapiens, HCT-116, read-out: Viability (%) HCT-116, @5 µM (footnote d)
Protocol: The cytotoxic effect was determined in breast (MCF-7) and colon (HCT-116) tumor cell lines using MTT assays.
Cells were seeded at 3 × 10^4 cells/mL in 96-well plates. The test compound was diluted in PBS. […] Viability was evaluated by MTT or WST-1 and dose/response curves were performed.

With `COc1ccc(C2Cc3[nH]c4ccccc4c3C(CCNCC3CC3)C2N)cc1` (stereo not shown) [4b, 4-{2-[(Cyclopropylmethyl)amino]ethyl}-2-(4-methoxyphenyl)-2,3,4,9-tetrahydro-1H-carbazol-3-amine] the inhibition at 5 µM ([1]; Homo sapiens, MCF7, @5 µM (footnote d), read-out: Inhibition of tumorsphere formation (%) MCF-7) was 100%, the “Formation of tumorspheres (in words)” value ([1]; MCF-7 mamospheres and HCT-116 colonospheres, noncytotoxic concentration) was “completely inhibit” and the IC50 (OCI-AML3 (NPM1 C+)) was 7.26 µM. The IC50 (MOLM13 (NPM1 WT)) was 10.9 µM, the “NPM1 expression, dot plot (in words)” value (NPM1) was “decreased NPM1 expression” and the “Reduction in tumor mass (in words)” value (OCI-AML3-ffLuc-GFP cells; 25 mg/kg, data not shown) was “negligible”. For the same molecule, the “Tumor cell infiltration of bone marrow, H&E staining (in words)” value (OCI-AML3-ffLuc-GFP cells; 50 mg/kg) was “less tumor cell infiltration”, the “Survival, treated vs untreated animals (in words)” value (OCI-AML3-ffLuc-GFP cells; 50 mg/kg, Kaplan-Meier, listed as UCM-13369) was “no significant differences; also recorded: no difference” and the “Tumor infiltration vs untreated group at end point (in words)” value (OCI-AML3-ffLuc-GFP cells; 50 mg/kg, bioluminescence) was “reduction of tumor infiltration”. The viability at 5 µM (HCT-116) was 70%.
